Test systems include DLD-1 colon; DMS 114 small cell lung; DMS 273 small cell lung; HOP-18 NSCLC; KM20L2 colon; M19-MEL melanoma; P388 leukemia; P388/ADR leukemia; SN12K1 renal; XF 498 CNS; LXFL 529 NSCLC.
Holding throughout (test): NCI tumour cell line growth inhibition, 48 h

Molecules are shown by their SMILES.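 Briefly, cells in 96-well plates were exposed to five compound concentrations for 48 h, and endpoints were estimated by linear interpolation. The concentration for full growth arrest is given as TGI.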 Where a SMILES comes first, the peptide text is derived from it.

Consider `C=C1C(=O)O[C@@H]2[C@H]3O[C@]3(C)CCC=C(C)CC[C@@H]12`, for which the TGI is 28.4 µM in the experiment on DLD-1 colon; 165 µM in the experiment with DMS 114 small cell lung; > 60.3 µM with DMS 273 small cell lung; 28.3 µM in the experiment on HOP-18 NSCLC; 62.2 µM in the experiment on KM20L2 colon; 33.7 µM in the experiment on M19-MEL melanoma. The TGI was found to be 175 µM in the experiment with P388 leukemia, 27.9 µM in the experiment on P388/ADR leukemia, 37.9 µM with SN12K1 renal and 32.4 µM in the experiment on XF 498 CNS.

Turning to `CN(C)c1nc(N(C)C)nc(N(C)C)n1`, the TGI with DLD-1 colon was > 150 µM; in the experiment with DMS 114 small cell lung it was > 150 µM; in the experiment on DMS 273 small cell lung, > 147 µM; in the experiment with HOP-18 NSCLC, 87.3 µM; with KM20L2 colon, > 150 µM; with LXFL 529 NSCLC, > 150 µM. Also, the TGI is > 148 µM in the experiment on M19-MEL melanoma; > 150 µM with P388 leukemia; > 136 µM with P388/ADR leukemia; > 150 µM with SN12K1 renal; > 116 µM in the experiment with XF 498 CNS.

For the molecule `CC1=C2C(O)C(C(C)C(=O)NCC(C)C)CCC2(C)C=CC1=O` (stereo not given), the TGI with DLD-1 colon, in the experiment with DMS 114 small cell lung, in the experiment on DMS 273 small cell lung, in the experiment with HOP-18 NSCLC, in the experiment with KM20L2 colon and in the experiment with M19-MEL melanoma was > 100 µM throughout. The TGI in the experiment with P388 leukemia, in the experiment on P388/ADR leukemia, with SN12K1 renal and with XF 498 CNS was > 100 µM throughout.

On to `CC1NC(=O)CNC(=O)CNC(=O)C(Cc2ccc(O)cc2)NC(=O)C(C(C)C)NC(=O)C(C)NC1=O` (stereo not given) (cyclo(GGAAVY); configuration not given here), for which the TGI in the experiment on DLD-1 colon, in the experiment on DMS 114 small cell lung, in the experiment with DMS 273 small cell lung, in the experiment with HOP-18 NSCLC, in the experiment on M19-MEL melanoma and in the experiment on P388 leukemia was > 100 µM each time. Further, the TGI with P388/ADR leukemia, in the experiment on SN12K1 renal and in the experiment with XF 498 CNS was > 100 µM in each case.

For the origin of these results see PubChem BioAssay (NCI).
